Measured values from patent US20230085307A1, “PYRIDAZINONE COMPOUND AND HERBICIDE” (NISSAN CHEMICAL CORPORATION, priority 2019, published 2023).

Columns and labels:
[1] = test system: Chinese sprangletop; test: Test Example 3: herbicidal effect by foliage application, Wagner pot (Table 18, symbol D); format: in vivo, chinese sprangletop (Leptochloa chinensis); conditions: 320 g/ha
How it was run: (§1)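 Plants were sown in alluvial soil held under 0.1–0.5 cm standing water and grown 14 days in a greenhouse at 25–30 °C. An emulsifiable formulation, water-diluted to the set dose, was then sprayed onto the foliage, and effects were scored three weeks later using previously defined criteria.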

[2] = test system: wild oat; test: Test Example 4: herbicidal effect by soil treatment (Table 19, symbol I); format: in vivo, wild oat (Avena fatua)
How it was run: (§2)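 Scoring uses the grading scale of an earlier test, three weeks post-application. Treatment consists of spraying a diluted emulsion formulation across the surface of sterilized diluvial soil in which seeds are buried near 1.5 cm deep; boxes are kept in a greenhouse between 25° C. and 30° C.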

[3] = test system: lambsquarters; test: Test Example 4: herbicidal effect by soil treatment (Table 19, symbol O); format: in vivo, lambsquarters (Chenopodium album)
How it was run: as §2

[4] = test system: Italian ryegrass; test: Test Example 5: herbicidal effect by foliage application, plastic box (Table 20, symbol K); format: in vivo, Italian ryegrass (Lolium multiflorum); conditions: foliage application, 320 g/ha
How it was run: (§3)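 Post-emergence foliar test in sterilized diluvial soil. Compound applied as water-diluted emulsion at a predetermined rate to 14-day-old plants; evaluation at three weeks.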

[5] = test system: barnyard grass; test: Test Example 3: herbicidal effect by foliage application, Wagner pot (Table 18, symbol H); format: in vivo, barnyard grass (Echinochloa crus-galli); conditions: 320 g/ha
How it was run: as §1

[6] = test system: chickweed; test: Test Example 5: herbicidal effect by foliage application, plastic box (Table 20, symbol P); format: in vivo, common chickweed (Stellaria media); conditions: foliage application, 320 g/ha, three weeks after application
How it was run: as §3

[7] = test system: barnyard grass; test: Test Example 4: herbicidal effect by soil treatment (Table 19, symbol H); format: in vivo, barnyard grass (Echinochloa crus-galli)
How it was run: as §2

[8] = test system: redroot pigweed; test: Test Example 4: herbicidal effect by soil treatment (Table 19, symbol N); format: in vivo, redroot pigweed (Amaranthus retroflexus)
How it was run: as §2

[9] = test system: southern crabgrass; test: Test Example 5: herbicidal effect by foliage application, plastic box (Table 20, symbol F); format: in vivo, southern crabgrass (Digitaria ciliaris); conditions: foliage application, 320 g/ha
How it was run: as §3

[10] = test system: green foxtail; test: Test Example 5: herbicidal effect by foliage application, plastic box (Table 20, symbol G); format: in vivo, green foxtail (Setaria viridis); conditions: foliage application, 320 g/ha
How it was run: as §3

[11] = test system: persian speedwell; test: Test Example 4: herbicidal effect by soil treatment (Table 19, symbol R); format: in vivo, Persian speedwell (Veronica persica)
How it was run: as §2

[12] = test system: green foxtail; test: Test Example 4: herbicidal effect by soil treatment (Table 19, symbol G); format: in vivo, green foxtail (Setaria viridis)
How it was run: as §2

[13] = test system: false cleavers; test: Test Example 4: herbicidal effect by soil treatment (Table 19, symbol Q); format: in vivo, false cleavers (Galium spurium)
How it was run: as §2

[14] = test system: wild oat; test: Test Example 5: herbicidal effect by foliage application, plastic box (Table 20, symbol I); format: in vivo, wild oat (Avena fatua); conditions: foliage application, 320 g/ha
How it was run: as §3

[15] = test system: blackgrass; test: Test Example 4: herbicidal effect by soil treatment (Table 19, symbol J); format: in vivo, blackgrass (Alopecurus myosuroides)
How it was run: as §2

[16] = test system: false cleavers; test: Test Example 5: herbicidal effect by foliage application, plastic box (Table 20, symbol Q); format: in vivo, false cleavers (Galium spurium); conditions: foliage application, 320 g/ha
How it was run: as §3

[17] = test system: chickweed; test: Test Example 4: herbicidal effect by soil treatment (Table 19, symbol P); format: in vivo, common chickweed (Stellaria media)
How it was run: as §2

[18] = test system: barnyard grass; test: Test Example 5: herbicidal effect by foliage application, plastic box (Table 20, symbol H); format: in vivo, barnyard grass (Echinochloa crus-galli); conditions: foliage application, 320 g/ha
How it was run: as §3

[19] = test system: rice flat sedge; test: Test Example 3: herbicidal effect by foliage application, Wagner pot (Table 18, symbol E); format: in vivo, rice flat sedge (Cyperus iria); conditions: 320 g/ha
How it was run: as §1

[20] = test system: Italian ryegrass; test: Test Example 4: herbicidal effect by soil treatment (Table 19, symbol K); format: in vivo, Italian ryegrass (Lolium multiflorum)
How it was run: as §2

[21] = test system: windgrass; test: Test Example 5: herbicidal effect by foliage application, plastic box (Table 20, symbol L); format: in vivo, windgrass (Apera spica-venti); conditions: foliage application, 320 g/ha
How it was run: as §3

[22] = test system: lambsquarters; test: Test Example 5: herbicidal effect by foliage application, plastic box (Table 20, symbol O); format: in vivo, lambsquarters (Chenopodium album); conditions: foliage application, 320 g/ha
How it was run: as §3

[23] = test system: southern crabgrass; test: Test Example 4: herbicidal effect by soil treatment (Table 19, symbol F); format: in vivo, southern crabgrass (Digitaria ciliaris)
How it was run: as §2

[24] = test system: velvetleaf; test: Test Example 4: herbicidal effect by soil treatment (Table 19, symbol M); format: in vivo, velvetleaf (Abutilon theophrasti)
How it was run: as §2

[25] = test system: blackgrass; test: Test Example 5: herbicidal effect by foliage application, plastic box (Table 20, symbol J); format: in vivo, blackgrass (Alopecurus myosuroides); conditions: foliage application, 320 g/ha
How it was run: as §3

[26] = test system: velvetleaf; test: Test Example 5: herbicidal effect by foliage application, plastic box (Table 20, symbol M); format: in vivo, velvetleaf (Abutilon theophrasti); conditions: foliage application, 320 g/ha
How it was run: as §3

[27] = test system: persian speedwell; test: Test Example 5: herbicidal effect by foliage application, plastic box (Table 20, symbol R); format: in vivo, Persian speedwell (Veronica persica); conditions: foliage application, 320 g/ha
How it was run: as §3

[28] = test system: redroot pigweed; test: Test Example 5: herbicidal effect by foliage application, plastic box (Table 20, symbol N); format: in vivo, redroot pigweed (Amaranthus retroflexus); conditions: foliage application, 320 g/ha, three weeks after application
How it was run: as §3

[29] = test system: windgrass; test: Test Example 4: herbicidal effect by soil treatment (Table 19, symbol L); format: in vivo, windgrass (Apera spica-venti)
How it was run: as §2

[30] = test system: oval-leafed pondweed; test: Test Example 1: herbicidal activity, application before weed generation under submerged conditions (Table 16, symbol C); format: in vivo, oval-leafed pondweed (Monochoria vaginalis); conditions: 320 g/ha applied herbicide
How it was run: (§4)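 Emulsion formulation, water-diluted to set dose, was put onto the flooded surface (4 cm depth, alluvial soil) the same day weeds were sown and 2.5-leaf rice transplanted. After 3 weeks at 25-30 °C under glass, each species was rated 0 (≤5% kill) to 5 (≥90% kill).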

[31] = test system: late watergrass; test: Test Example 1: herbicidal activity, application before weed generation under submerged conditions (Table 16, symbol A); format: in vivo, late watergrass (Echinochloa oryzicola); conditions: 320 g/ha applied herbicide
How it was run: as §4

[32] = test system: Japanese bulrush; test: Test Example 1: herbicidal activity, application before weed generation under submerged conditions (Table 16, symbol B); format: in vivo, Japanese bulrush (Schoenoplectus juncoides); conditions: 320 g/ha applied herbicide
How it was run: as §4

[33] = amount of applied herbicide 320 g/ha

Structure (SMILES): CCc1ccccc1-c1sc2ccccc2c1-c1c(O)c(C)nn(C)c1=O [1-003]
- herbicidal effect on D (Chinese sprangletop), rating 0-5 [1]: 3 (Herbicidal rate of 40% or more and less than 70%)
- herbicidal effect rating, I: wild oat [2, 33]: 0 (Herbicidal rate of 5% or less (almost no effect))
- herbicidal effect rating, O: lambsquarters [3, 33]: 3 (Herbicidal rate of 40% or more and less than 70%)
- herbicidal effect grade, K: Italian ryegrass ([4]; three weeks after application): 3 (Herbicidal rate of 40% or more and less than 70%)
- herbicidal effect on H (barnyard grass), rating 0-5 [5]: 1 (Herbicidal rate of 5% or more and less than 20%)
- herbicidal effect grade, P: chickweed [6]: 5 (Herbicidal rate of 90% or more (almost completely withered))
- herbicidal effect rating, H: barnyard grass [7, 33]: 0 (Herbicidal rate of 5% or less (almost no effect))
- herbicidal effect rating, N: redroot pigweed [8, 33]: 2 (Herbicidal rate of 20% or more and less than 40%)
- herbicidal effect grade, F: southern crabgrass ([9]; three weeks after application): 4 (Herbicidal rate of 70% or more and less than 90%)
- herbicidal effect grade, G: green foxtail ([10]; three weeks after application): 5 (Herbicidal rate of 90% or more (almost completely withered))
- herbicidal effect rating, R: persian speedwell [11, 33]: 2 (Herbicidal rate of 20% or more and less than 40%)
- herbicidal effect rating, G: green foxtail [12, 33]: 4 (Herbicidal rate of 70% or more and less than 90%)
- herbicidal effect rating, Q: false cleavers [13, 33]: 3 (Herbicidal rate of 40% or more and less than 70%)
- herbicidal effect grade, I: wild oat ([14]; three weeks after application): 3 (Herbicidal rate of 40% or more and less than 70%)
- herbicidal effect rating, J: blackgrass [15, 33]: 0 (Herbicidal rate of 5% or less (almost no effect))
- herbicidal effect grade, Q: false cleavers ([16]; three weeks after application): 5 (Herbicidal rate of 90% or more (almost completely withered))
- herbicidal effect rating, P: chickweed [17, 33]: 4 (Herbicidal rate of 70% or more and less than 90%)
- herbicidal effect grade, H: barnyard grass ([18]; three weeks after application): 3 (Herbicidal rate of 40% or more and less than 70%)
- herbicidal effect on E (rice flat sedge), rating 0-5 [19]: 3 (Herbicidal rate of 40% or more and less than 70%)
- herbicidal effect rating, K: Italian ryegrass [20, 33]: 0 (Herbicidal rate of 5% or less (almost no effect))
- herbicidal effect grade, L: windgrass ([21]; three weeks after application): 5 (Herbicidal rate of 90% or more (almost completely withered))
- herbicidal effect grade, O: lambsquarters ([22]; three weeks after application): 0 (Herbicidal rate of 5% or less (almost no effect))
- herbicidal effect rating, F: southern crabgrass [23, 33]: 3 (Herbicidal rate of 40% or more and less than 70%)
- herbicidal effect rating, M: velvetleaf [24, 33]: 0 (Herbicidal rate of 5% or less (almost no effect))
- herbicidal effect grade, J: blackgrass ([25]; three weeks after application): 3 (Herbicidal rate of 40% or more and less than 70%)
- herbicidal effect grade, M: velvetleaf ([26]; three weeks after application): 4 (Herbicidal rate of 70% or more and less than 90%)
- herbicidal effect grade, R: persian speedwell ([27]; three weeks after application): 5 (Herbicidal rate of 90% or more (almost completely withered))
- herbicidal effect grade, N: redroot pigweed [28]: 3 (Herbicidal rate of 40% or more and less than 70%)
- herbicidal effect rating, L: windgrass [29, 33]: 0 (Herbicidal rate of 5% or less (almost no effect))

Structure (SMILES): COc1nn(C)c(=O)c(-c2c(-c3ccc4c(c3)OCCO4)sc3ccccc23)c1O [1-198]
- herbicidal effect on D (Chinese sprangletop), rating 0-5 [1]: 3 (Herbicidal rate of 40% or more and less than 70%)
- I: wild oat, herbicidal effect rating ([2]; AAH 320 g/ha): 0 (Herbicidal rate of 5% or less (almost no effect))
- O: lambsquarters, herbicidal effect rating ([3]; AAH 320 g/ha): 0 (Herbicidal rate of 5% or less (almost no effect))
- effect on Italian ryegrass (K) ([4]; 3 weeks after application): 4 (Herbicidal rate of 70% or more and less than 90%)
- herbicidal effect on H (barnyard grass), rating 0-5 [5]: 5 (Herbicidal rate of 90% or more (almost completely withered))
- H: barnyard grass, herbicidal effect rating ([7]; AAH 320 g/ha): 2 (Herbicidal rate of 20% or more and less than 40%)
- N: redroot pigweed, herbicidal effect rating ([8]; AAH 320 g/ha): 0 (Herbicidal rate of 5% or less (almost no effect))
- effect on southern crabgrass (F) ([9]; 3 weeks after application): 4 (Herbicidal rate of 70% or more and less than 90%)
- effect on green foxtail (G) ([10]; 3 weeks after application): 4 (Herbicidal rate of 70% or more and less than 90%)
- R: persian speedwell, herbicidal effect rating ([11]; AAH 320 g/ha): 5 (Herbicidal rate of 90% or more (almost completely withered))
- G: green foxtail, herbicidal effect rating ([12]; AAH 320 g/ha): 5 (Herbicidal rate of 90% or more (almost completely withered))
- Q: false cleavers, herbicidal effect rating ([13]; AAH 320 g/ha): 1 (Herbicidal rate of 5% or more and less than 20%)
- Herbicidal effect on C: oval-leafed pondweed (grade 0-5) [30]: 0 (Herbicidal rate of 5% or less (almost no effect))
- effect on wild oat (I) ([14]; 3 weeks after application): 0 (Herbicidal rate of 5% or less (almost no effect))
- J: blackgrass, herbicidal effect rating ([15]; AAH 320 g/ha): 0 (Herbicidal rate of 5% or less (almost no effect))
- effect on false cleavers (Q) ([16]; 3 weeks after application): 1 (Herbicidal rate of 5% or more and less than 20%)
- P: chickweed, herbicidal effect rating ([17]; AAH 320 g/ha): 5 (Herbicidal rate of 90% or more (almost completely withered))
- effect on barnyard grass (H) ([18]; 3 weeks after application): 2 (Herbicidal rate of 20% or more and less than 40%)
- herbicidal effect on E (rice flat sedge), rating 0-5 [19]: 5 (Herbicidal rate of 90% or more (almost completely withered))
- K: Italian ryegrass, herbicidal effect rating ([20]; AAH 320 g/ha): 0 (Herbicidal rate of 5% or less (almost no effect))
- effect on windgrass (L) ([21]; 3 weeks after application): 0 (Herbicidal rate of 5% or less (almost no effect))
- effect on lambsquarters (O) ([22]; 3 weeks after application): 2 (Herbicidal rate of 20% or more and less than 40%)
- F: southern crabgrass, herbicidal effect rating ([23]; AAH 320 g/ha): 0 (Herbicidal rate of 5% or less (almost no effect))
- M: velvetleaf, herbicidal effect rating ([24]; AAH 320 g/ha): 5 (Herbicidal rate of 90% or more (almost completely withered))
- Herbicidal effect on A: late watergrass (grade 0-5) [31]: 3 (Herbicidal rate of 40% or more and less than 70%)
- effect on blackgrass (J) ([25]; 3 weeks after application): 0 (Herbicidal rate of 5% or less (almost no effect))
- Herbicidal effect on B: Japanese bulrush (grade 0-5) [32]: 0 (Herbicidal rate of 5% or less (almost no effect))
- effect on velvetleaf (M) ([26]; 3 weeks after application): 4 (Herbicidal rate of 70% or more and less than 90%)
- effect on persian speedwell (R) ([27]; 3 weeks after application): 5 (Herbicidal rate of 90% or more (almost completely withered))
- L: windgrass, herbicidal effect rating ([29]; AAH 320 g/ha): 0 (Herbicidal rate of 5% or less (almost no effect))
